Where two headings read alike, the source gives them in different places.
Key:
FIH1 [1] = target: T1, FIH1 (Homo sapiens, UniProt Q9NWT6); test: FIH1 IC50 determination (LC/MS/MS, selectivity screening)
PHD1 [2] = target: T2, PHD1 (Homo sapiens, UniProt Q96KS0); test: PHD1 IC50 determination (LC/MS/MS, selectivity screening); type: biochemical
PHD3 [3] = target: T3, PHD3 (Homo sapiens, UniProt Q9H6Z9); test: PHD3 IC50 determination (LC/MS/MS, selectivity screening); type: biochemical
PHD2 = PHD2 (Homo sapiens, UniProt Q9GZT9); test: Mechanism of inhibition and Ki determination at increasing 2-OG concentrations; conditions: for mechanism of inhibition of PHD2: IC50 increases linearly with increasing 2-OG concentration
Chain of PHD2 (Q9GZT9 180-417): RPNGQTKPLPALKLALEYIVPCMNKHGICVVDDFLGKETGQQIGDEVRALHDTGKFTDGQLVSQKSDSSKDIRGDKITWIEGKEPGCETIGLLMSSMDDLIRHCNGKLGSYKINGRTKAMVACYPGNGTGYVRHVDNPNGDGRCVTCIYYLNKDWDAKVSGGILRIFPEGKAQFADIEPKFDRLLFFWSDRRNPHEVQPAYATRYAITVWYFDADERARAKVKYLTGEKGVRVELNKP

PHD1 [4] = target: T2, PHD1; conditions: read-out: Km for 2-OG, PHD1; 1 μM peptide, 1 mM ascorbic acid, 50 nM enzyme
PHD3 [5] = target: T3, PHD3; conditions: read-out: Km for 2-OG, PHD3; 1 μM peptide, 1 mM ascorbic acid, 40 nM enzyme
FIH1 [6] = target: T1, FIH1; conditions: read-out: Km for 2-OG, FIH1; 1 μM peptide, 1 mM ascorbic acid, 15 nM enzyme

T3 sequence (Q9H6Z9 whole entry): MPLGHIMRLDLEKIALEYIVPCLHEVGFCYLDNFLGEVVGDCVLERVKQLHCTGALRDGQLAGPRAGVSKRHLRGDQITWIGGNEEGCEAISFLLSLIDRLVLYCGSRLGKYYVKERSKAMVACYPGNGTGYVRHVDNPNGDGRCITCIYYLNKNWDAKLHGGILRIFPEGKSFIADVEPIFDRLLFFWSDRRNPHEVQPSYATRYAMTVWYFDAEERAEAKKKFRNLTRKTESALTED
T1 sequence (Q9NWT6 whole entry): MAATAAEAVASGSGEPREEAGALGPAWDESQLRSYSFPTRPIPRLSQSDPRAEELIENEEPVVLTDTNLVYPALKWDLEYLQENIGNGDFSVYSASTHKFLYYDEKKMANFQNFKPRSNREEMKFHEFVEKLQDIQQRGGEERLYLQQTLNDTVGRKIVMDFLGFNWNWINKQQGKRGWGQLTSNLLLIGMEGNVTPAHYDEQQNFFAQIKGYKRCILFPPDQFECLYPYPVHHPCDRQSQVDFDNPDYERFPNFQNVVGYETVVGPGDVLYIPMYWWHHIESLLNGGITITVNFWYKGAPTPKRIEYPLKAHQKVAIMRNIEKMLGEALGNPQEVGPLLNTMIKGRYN
T2 sequence (Q96KS0 163-403): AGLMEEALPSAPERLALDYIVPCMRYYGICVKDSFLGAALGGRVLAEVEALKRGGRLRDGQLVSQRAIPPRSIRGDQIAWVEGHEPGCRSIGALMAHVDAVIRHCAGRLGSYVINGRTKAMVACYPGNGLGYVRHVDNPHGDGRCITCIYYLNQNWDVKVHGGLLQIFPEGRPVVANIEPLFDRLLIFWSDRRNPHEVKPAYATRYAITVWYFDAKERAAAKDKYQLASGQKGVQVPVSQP

| SMILES | IC50 (FIH1 [1]) [nM] | IC50 (PHD1 [2]) [µM] | IC50 (PHD3 [3]) [nM] | further results |
| --- | --- | --- | --- | --- |
| O=C(O)c1cnn(-c2nc3cc(C(F)(F)F)c(Cl)cc3[nH]2)c1 [Compound 2] | 5490 | 0.011 | 25 | – |
| N#Cc1cn(-c2c[nH]n(-c3cc(N4CC(F)(F)C4)ncn3)c2=O)nn1 [Compound 7] | – | 0.02 | 12 | Ki (PHD2): 87 nM; mechanism of inhibition of PHD2 (PHD2): compete with 2-OG substrate for binding at the enzyme active site |
| Cc1cccnc1CN1CCC2(CC1)C(=O)N(c1ccc(-c3ccccc3)cc1)c1ccccc12 [Compound 9] | > 10000 | 1.62 | 2040 | – |
| O=C(O)CNC(=O)c1c(O)n(C2CCCCC2)c(=O)n(C2CCCCC2)c1=O [Compound 3] | – | 0.015 | 8 | – |
| CC(C)c1nn(Cc2ccc(-c3ccc(F)cc3)cc2F)c(=O)c(C(=O)NCC(=O)O)c1O [Compound 1] | – | 0.003 | 13 | – |
| O=C(NC(c1ccccc1)c1ccccc1)c1cnc(-c2cccnn2)nc1O [Compound 8] | 9770 | 0.02 | 25 | – |
| O=C(O)CCC(=O)C(=O)O [Compound 2-OG, 2-oxoglutarate] | – | – | – | Km (PHD1 [4]): 0.31 µM; Km (PHD3 [5]): 0.66 µM; Km (FIH1 [6]): 0.56 µM |
| O=C(O)CNC(=O)c1nc(Cl)c2ccccc2c1O [Compound 5] | > 10000 | 0.016 | 21 | – |
| O=C(O)CNC(=O)C(=O)O [Compound 6] | 191 | – | 186 | IC50 (PHD1 [2]; read-out: PHD1 IC50 (μM)—60 min incubation, 60 min preincubation, 25 nM PHD1, 2 μM 2-OG): 0.851 µM |
| Cc1nc(C(=O)NCC(=O)O)c(O)c2ccc(Oc3ccccc3)cc12 [Compound 4] | > 10000 | 0.002 | 5 | mechanism of inhibition of PHD2 (PHD2): compete with 2-OG substrate for binding at the enzyme active site |
